The record followed here is patent publication US4200638A, “Indole derivatives and therapeutically acting drugs” (Omnium Chimique Societe Anonyme, priority 1977, dated 1980).

The nature of data set [1]: Acute toxicity (LD50, method of Lichtfield and Wilcoxon). To be noted: mouse, in vivo, mice. Here is the method: The compounds of the invention were administered by intragastric or by intravenous route to Charles River stock mice. The lethal doses for 50% (LD50) were determined graphically according to the method of Lichtfield and Wilcoxon (J.Pharmacol.Exp. Therap. […], 96, 99).

The next data set concerns vertebral flow rate. Nature of the data set: Vertebral flow rate in anesthetized dogs. It counts as in vivo. To be noted: 5.5 mg/kg i.v. Here is the method: (§1) In addition, a substantial increase of vertebral flow rate was noticed upon dogs previously anesthetized with sodium pentobarbital (30 mg/kg i.v.). More particularly a does of 5.5 mg/kg i.v. of N-ethylchanodesethylapovincamine causes a 50 to 100% increase of vertebral flow rate. Said effect on the flow rate is selective, the increase of femoral flow rate being negligible.

The next data set concerns femoral flow rate. Nature of the data set: Femoral flow rate in anesthetized dogs. It counts as in vivo. To be noted: 5.5 mg/kg i.v.; dogs anesthetized with sodium pentobarbital (30 mg/kg i.v.). The procedure:
as §1

The test system of a further data set is Charles River stock mice. Nature of the data set: Hypobaric anoxia test on mice (survival time). It counts as in vivo. The procedure:
Charles River stock mice of the same sex, weighting about 20±2 g are shared into three lots of 10 animals each. The lots 1 and 2 comprise treated animals, i.e. those having received either a substance to be tested. The third lot comprises control animals.
The compounds examined are administered p.o. 30 minutes before the experiment.
The animals are placed in an atmosphere improverished in oxygen by creating a partial vacuum (190 mm Hg, corresponding to 5.25% oxygen), in about 30 seconds.
The survival time of the mice is measured with a chronometer. Said time is increased by the agents capable of enhancing oxygenation of tissues and more particularly brain oxygenation.
Under the above described conditions, the dose which provides a 50% increase of the average survival time of the animals may be expressed as the 50% effective dose (here abbreviated as ED50).

Take `CCN1CCc2c3n(c4ccccc24)C(C(=O)OC)=CCC31` (stereo not drawn) [N-ethylchanodesethylapovincamine]: the LD50 in data set [1] (iv) turned out to be 55 mg/kg; in data set [1] (po, p.o. (intragastric)), 1120 mg/kg. Besides, the “effect on the flow rate (vertebral versus femoral)” value in the data set on vertebral flow rate is listed as “selective”. The “increase of femoral flow rate” value with femoral flow rate is on record as “negligible”. For the same molecule, the median effective dose (ED50) in the data set with Charles River stock mice (Mus musculus, po, p.o. 30 minutes before the experiment, 190 mm Hg, corresponding to 5.25% oxygen, read-out: ED50 (dose which provides a 50% increase of the average survival time)) was 225 mg/kg. The molecule also displayed an LD50/ED50 in the data set with Charles River stock mice (p.o.) of 5.
